# Literature values as cited in US7747395B2, “Method of inhibitor design and identification using a 3-D structure of human peptide deformylase” (Sloan-Kettering Institute for Cancer Research, priority 2007, dated 2010).
# System: drug resistant bacterial strains
# Conditions: cited from earlier work
smiles,measurement,value
CC(C)(C)[C@H](NC(=O)[C@H](CC1CCCC1)CN(O)C=O)C(=O)N1CCN(Cc2ccc3c(c2)OCO3)CC1 [BB-83698],antibacterial activity in vitro,broad spectrum activity in vitro against drug resistant bacterial strains
